Measurements published in PubChem BioAssay (NCI).
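48-hour exposure; five concentrations; linearly interpolated endpoints. Here, GI50 denotes the concentration required for 50% inhibition of growth. TGI: concentration producing complete growth inhibition.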

How the values were obtained:
Experiment in all cases: DTP human tumour cell line panel, 48 h
[1] = test system: SK-MEL-28 melanoma
[2] = test system: OVCAR-3 ovarian
[3] = test system: OVCAR-5 ovarian
[4] = test system: A498 renal
[5] = test system: MCF7 breast
[6] = test system: NCI-H226 lung
[7] = test system: MDA-MB-231 breast
[8] = test system: DU-145 prostate
[9] = test system: HOP-62 NSCLC
[10] = test system: SF-295 CNS
[11] = test system: NCI/ADR-RES ovarian
[12] = test system: KM12 colon
[13] = test system: LOX IMVI melanoma
[14] = test system: SF-268 CNS
[15] = test system: T-47D breast
[16] = test system: OVCAR-8 ovarian
[17] = test system: RXF 393 renal
[18] = test system: M14 melanoma
[19] = test system: HCT-116 colon
[20] = test system: BT-549 breast
[21] = test system: COLO 205 colon
[22] = test system: RPMI-8226 leukemia
[23] = test system: TK-10 renal
[24] = test system: HT29 colon
[25] = test system: IGROV1 ovarian
[26] = test system: A549 NSCLC
[27] = test system: HS 578T breast
[28] = test system: SK-MEL-2 melanoma
[29] = test system: MOLT-4 leukemia
[30] = test system: SN12C renal
[31] = test system: PC-3 prostate
[32] = test system: CAKI-1 renal
[33] = test system: K-562 leukemia
[34] = test system: U251 CNS
[35] = test system: UACC-257 melanoma
[36] = test system: SR leukemia
[37] = test system: HCT-15 colon
[38] = test system: SW-620 colon
[39] = test system: SF-539 CNS
[40] = test system: SNB-19 CNS
[41] = test system: NCI-H23 lung
[42] = test system: NCI-H460 lung
[43] = test system: HOP-92 NSCLC
[44] = test system: MALME-3M melanoma
[45] = test system: SK-MEL-5 melanoma
[46] = test system: SNB-75 CNS
[47] = test system: UACC-62 melanoma
[48] = test system: ACHN renal
[49] = test system: CCRF-CEM leukemia
[50] = test system: EKVX NSCLC
[51] = test system: OVCAR-4 ovarian
[52] = test system: UO-31 renal
[53] = test system: SK-OV-3 ovarian
[54] = test system: NCI-H522 lung
[55] = test system: 786-0 renal
[56] = test system: HCC-2998 colon
[57] = test system: HL-60(TB) leukemia

O=C(Nc1nc(-c2ccc(Cl)cc2)cs1)c1cc(-c2ccc(Br)cc2)nc2ccc(Cl)cc12
GI50 [1]: 5.62 µM | TGI [1]: > 100 µM | GI50 [2]: 2.86 µM | TGI [2]: 9.19 µM | GI50 [3]: 28.6 µM | TGI [3]: > 100 µM | GI50 [4]: 30.7 µM | TGI [4]: > 100 µM | GI50 [5]: 2.62 µM | TGI [5]: > 100 µM | GI50 [6]: 2.98 µM | TGI [6]: 15.4 µM | GI50 [7]: 3.02 µM | TGI [7]: 15.3 µM | GI50 [8]: 3.67 µM | TGI [8]: > 100 µM | GI50 [9]: 4.66 µM | TGI [9]: > 100 µM | GI50 [10]: 4.42 µM | TGI [10]: 58.6 µM | GI50 [11]: 3.97 µM | TGI [11]: > 100 µM | GI50 [12]: 3.35 µM | TGI [12]: 27.1 µM | GI50 [13]: 2.77 µM | TGI [13]: > 100 µM | GI50 [14]: 3.86 µM | TGI [14]: 36.4 µM | GI50 [15]: 16.1 µM | TGI [15]: > 100 µM | GI50 [16]: 3.94 µM | TGI [16]: 62.4 µM | GI50 [17]: 19.1 µM | TGI [17]: 89.7 µM | GI50 [18]: 2.16 µM | TGI [18]: 11.2 µM | GI50 [19]: 0.876 µM | TGI [19]: 11.3 µM | GI50 [20]: 2.47 µM | TGI [20]: 7.89 µM | GI50 [21]: 26.9 µM | TGI [21]: > 100 µM | GI50 [22]: 3.73 µM | TGI [22]: > 100 µM | GI50 [23]: 29.2 µM | TGI [23]: > 100 µM | GI50 [24]: 3.89 µM | TGI [24]: > 100 µM | GI50 [25]: 2.7 µM | TGI [25]: > 100 µM | GI50 [26]: 43.8 µM | TGI [26]: > 100 µM | GI50 [27]: 2.71 µM | TGI [27]: 18.2 µM | GI50 [28]: 6.69 µM | TGI [28]: > 100 µM | GI50 [29]: 3.77 µM | TGI [29]: > 100 µM | GI50 [30]: 4.78 µM | TGI [30]: 54.6 µM | GI50 [31]: 4.16 µM | TGI [31]: > 100 µM | GI50 [32]: 20.5 µM | TGI [32]: > 100 µM | GI50 [33]: 3.36 µM | TGI [33]: > 100 µM | GI50 [34]: 4.39 µM | TGI [34]: 37.8 µM | GI50 [35]: 24.1 µM | TGI [35]: > 100 µM | GI50 [36]: 3.72 µM | TGI [36]: > 100 µM | GI50 [37]: 3.12 µM | TGI [37]: 26.6 µM | GI50 [38]: 4.35 µM | TGI [38]: > 100 µM | GI50 [39]: 2.78 µM | TGI [39]: 10.4 µM | GI50 [40]: 5.22 µM | TGI [40]: > 100 µM | GI50 [41]: 5.64 µM | TGI [41]: > 100 µM | GI50 [42]: 32.7 µM | TGI [42]: > 100 µM | GI50 [43]: 2.98 µM | TGI [43]: 22.2 µM | GI50 [44]: 5.59 µM | TGI [44]: 76.5 µM | GI50 [45]: 3.28 µM | TGI [45]: 13.1 µM | GI50 [46]: 3.63 µM | TGI [46]: > 100 µM | GI50 [47]: 3.49 µM | TGI [47]: 22.6 µM | GI50 [48]: 5.18 µM | TGI [48]: > 100 µM | GI50 [49]: 4.06 µM | TGI [49]: > 100 µM | GI50 [50]: 15.3 µM | TGI [50]: > 100 µM | GI50 [51]: 7.1 µM | TGI [51]: > 100 µM | GI50 [52]: 3.45 µM | TGI [52]: > 100 µM | GI50 [53]: 34.2 µM | TGI [53]: > 100 µM | GI50 [54]: 7.87 µM | TGI [54]: > 100 µM | GI50 [55]: 3.53 µM | TGI [55]: 67.1 µM | GI50 [56]: 19.4 µM | TGI [56]: > 100 µM

CCO/C=N/C1=C(C#N)C(c2ccc(OC)cc2)c2sc3c(F)cccc3c2O1 (centres undefined)
GI50 [2]: 2.2 µM | TGI [2]: 9.7 µM | GI50 [3]: 6.8 µM | TGI [3]: 76.3 µM | GI50 [4]: 2.18 µM | TGI [4]: 7.8 µM | GI50 [5]: 1.44 µM | TGI [5]: 50.9 µM | GI50 [6]: 2.89 µM | TGI [6]: 42.1 µM | GI50 [7]: 3.87 µM | TGI [7]: 30.7 µM | GI50 [8]: 3.57 µM | TGI [8]: 57.2 µM | GI50 [9]: 2.9 µM | TGI [9]: 47.5 µM | GI50 [10]: 4.44 µM | TGI [10]: 62.3 µM | GI50 [11]: 1.25 µM | TGI [11]: 5.03 µM | GI50 [12]: 2.52 µM | TGI [12]: 72 µM | GI50 [13]: 3.08 µM | TGI [13]: 12.4 µM | GI50 [14]: 4.31 µM | TGI [14]: > 100 µM | GI50 [15]: 3.51 µM | TGI [15]: > 100 µM | GI50 [16]: 4.06 µM | TGI [16]: > 100 µM | GI50 [17]: 2 µM | TGI [17]: 16.5 µM | GI50 [18]: 1.7 µM | TGI [18]: > 100 µM | GI50 [19]: 2.02 µM | TGI [19]: > 100 µM | GI50 [20]: 7.17 µM | TGI [20]: > 100 µM | GI50 [21]: 3.33 µM | TGI [21]: 15 µM | GI50 [22]: 3.26 µM | TGI [22]: 16.3 µM | GI50 [23]: 6.74 µM | TGI [23]: > 100 µM | GI50 [24]: 3.23 µM | TGI [24]: 16.6 µM | GI50 [25]: 2.73 µM | TGI [25]: > 100 µM | GI50 [26]: 2.22 µM | TGI [26]: > 100 µM | GI50 [27]: 2.11 µM | TGI [27]: 7.93 µM | GI50 [28]: 3.8 µM | TGI [28]: 78.3 µM | GI50 [29]: 2.8 µM | TGI [29]: 13.5 µM | GI50 [57]: 2 µM | TGI [57]: 5.5 µM | GI50 [30]: 3.75 µM | TGI [30]: 55 µM | GI50 [31]: 2.86 µM | TGI [31]: > 100 µM | GI50 [32]: 3.3 µM | TGI [32]: > 100 µM | GI50 [33]: 0.537 µM | TGI [33]: > 100 µM | GI50 [34]: 3.48 µM | TGI [34]: 19.7 µM | GI50 [35]: 14.8 µM | TGI [35]: > 100 µM | GI50 [36]: 1.04 µM | TGI [36]: 17.5 µM | GI50 [37]: 1.67 µM | TGI [37]: 26.7 µM | GI50 [38]: 2.2 µM | TGI [38]: > 100 µM | GI50 [39]: 2.18 µM | TGI [39]: 6.28 µM | GI50 [40]: 4.02 µM | TGI [40]: > 100 µM | GI50 [41]: 3.29 µM | TGI [41]: > 100 µM | GI50 [42]: 2.82 µM | TGI [42]: 13.5 µM | GI50 [43]: 3.21 µM | TGI [43]: 43.6 µM | GI50 [44]: 11.3 µM | TGI [44]: > 100 µM | GI50 [45]: 3.24 µM | TGI [45]: 15.7 µM | GI50 [46]: 1.66 µM | TGI [46]: 5.67 µM | GI50 [47]: 1.84 µM | TGI [47]: > 100 µM | GI50 [48]: 5.57 µM | TGI [48]: > 100 µM | GI50 [49]: 2.69 µM | TGI [49]: 28.7 µM | GI50 [50]: 7.12 µM | TGI [50]: > 100 µM | GI50 [51]: 5.59 µM | TGI [51]: > 100 µM | GI50 [52]: 4.03 µM | TGI [52]: > 100 µM | GI50 [53]: 4.67 µM | TGI [53]: > 100 µM | GI50 [54]: 0.569 µM | TGI [54]: 3.84 µM | GI50 [55]: 4.85 µM | TGI [55]: 68.9 µM | GI50 [56]: 5.12 µM | TGI [56]: 32.6 µM
